{"source": "paper PMC4552634", "about": "“A New Set of Chemical Starting Points with Plasmodium falciparum Transmission-Blocking Potential for Antimalarial Drug Discovery” (PLoS ONE, 2015)", "key": {"[1]": {"system": "P. falciparum stage V gametocytes", "experiment": "Gametocytocidal ATP bioluminescence assay (single point 5 μM and 1 μM, dose-response)", "format": "cell-based, Plasmodium falciparum", "details": "for Ratio IC50 HepG2/IC50 P. falciparum: IC50 HepG2 divided by IC50 P. falciparum gametocytes; for IC50: P. falciparum gametocytes, average, read-out: IC50 Pf Gametocytes average, IC50 (µM) average; for pIC50: sexual stages (gametocytes), dose-response, read-out: IC50 sexual", "protocol": "Purified stage IV-V gametocytes were obtained as previously described [10]. Single point ATP bioluminescence assay and dose–response of positive hits was determined in accordance with the previously published protocol [10]."}, "[2]": {"system": "luciferase reaction (BacTiter-Glo)", "experiment": "Interference assay (inhibition of the BacTiter-Glo luciferase reaction)", "format": "biochemical", "parameters": "concentration or dose not given beside the values", "details": "ATP interference assay", "method": "To discard possible false-positive results, we performed an interference assay in parallel. […] […]. The ATP solution was made by dissolving ATP powder (ATP standard from the ATPlite 1 step assay kit, reference 6016731, Perkin Elmer) in culture medium. The positive control used was the Luciferase Inhibitor I Calbiochem (Merck, 119113) at 100 μM."}, "HepG2 cells": {"system": "HepG2 cells", "experiment": "Cytotoxicity in HepG2 cells (intracellular ATP, ATPlite, 48 h)", "format": "cell-based, human", "details": "HepG2 cells; IC50 per ratio column head; unit inferred", "protocol": "Cells were grown and maintained in EMEM (Sigma-Aldrich) supplemented with 2mM L-glutamine (Sigma-Aldrich) and 10% fetal calf serum (Perbio). […] Passages were routinely made upon reaching 80–90% confluence. For cytotoxicity experiments, cells were seeded onto 96-well clear bottom black plates coated with type I collagen (Biocoat, Becton Dickinson) at a cell density of 20,000 cells/well.\nTo determine cytotoxic effects, represented by the Tox50 value (the concentration of drug that reduces cell viability by 50%), cells were exposed to serial dilutions of compounds for 48 h at 37°C. The assay medium was as previously described, but supplemented with 5% fetal calf serum instead of 10%. […] In the presence of ATP, luminescence is emitted as the reaction described earlier for the BacTiter-Glo kit. Percentages of inhibition were calculated relative to vehicle control wells."}, "[3]": {"system": "P. falciparum asexual stages", "details": "TCAMS data, cited from earlier work; for pIC50: asexual stages, read-out: IC50 asexual"}}, "note": "pIC50: −log10 of the molar value. Where two headings read alike, the source gives them in different places."}
{"smiles": "O=C(Nc1ccc2c(c1)CCCN2S(=O)(=O)c1cccs1)c1cc([N+](=O)[O-])ccc1Cl", "note": "[TCMDC-125153]", "values": [{"measurement": "Ratio IC50 HepG2/IC50 P. falciparum", "setting": "[1]", "result": ">9"}, {"measurement": "IC50", "setting": "[1]", "result": 2.66, "unit": "µM"}, {"measurement": "pIC50", "setting": "[1]", "result": 5.57}, {"measurement": "% Control luminiscence", "setting": "[2]", "result": 100, "unit": "%"}, {"measurement": "pIC50", "setting": "HepG2 cells", "result": "< 4.60"}, {"measurement": "pIC50", "setting": "[3]", "result": 6.07}]}
{"smiles": "Cc1cc(NCCCCCCNc2cc(C)nc3c(C)cccc23)c2cccc(C)c2n1", "note": "[TCMDC-125702]", "values": [{"measurement": "Ratio IC50 HepG2/IC50 P. falciparum", "setting": "[1]", "result": ">7.5"}, {"measurement": "IC50", "setting": "[1]", "result": 3.32, "unit": "µM"}, {"measurement": "pIC50", "setting": "[1]", "result": 5.48}, {"measurement": "% Control luminiscence", "setting": "[2]", "result": 100, "unit": "%"}, {"measurement": "pIC50", "setting": "HepG2 cells", "result": "< 4.60"}, {"measurement": "pIC50", "setting": "[3]", "result": 6.39}]}
{"smiles": "CN(C)c1ccc2c(c1)Sc1cc(N(C)C)ccc1N2C(=O)CCCC(=O)O", "note": "[TCMDC-125778]", "values": [{"measurement": "IC50", "setting": "[1]", "result": "> 5", "unit": "µM"}, {"measurement": "% Control luminiscence", "setting": "[2]", "result": 100, "unit": "%"}, {"measurement": "pIC50", "setting": "HepG2 cells", "result": "< 4.60"}, {"measurement": "pIC50", "setting": "[3]", "result": 6.10}]}
{"smiles": "Cc1ccc(Nc2nc(-c3ccccn3)cs2)nc1", "note": "[TCMDC-125854]", "values": [{"measurement": "IC50", "setting": "[1]; Plasmodium falciparum", "result": 0.16, "unit": "µM"}, {"measurement": "pIC50", "setting": "[1]", "result": 6.80}, {"measurement": "% Control luminiscence", "setting": "[2]", "result": 100, "unit": "%"}, {"measurement": "pIC50", "setting": "[3]", "result": 6.12}]}
{"smiles": "C[C@H](Cc1ccc(C[C@@H](C)NC[C@H](O)c2cccc(Cl)c2)cc1)NC[C@H](O)COc1ccccc1", "note": "[TCMDC-131549]", "values": [{"measurement": "Ratio IC50 HepG2/IC50 P. falciparum", "setting": "[1]", "result": 5}, {"measurement": "IC50", "setting": "[1]", "result": 0.92, "unit": "µM"}, {"measurement": "pIC50", "setting": "[1]", "result": 6.03}, {"measurement": "% Control luminiscence", "setting": "[2]", "result": 100, "unit": "%"}, {"measurement": "pIC50", "setting": "HepG2 cells", "result": 5.33}, {"measurement": "pIC50", "setting": "[3]", "result": 5.93}]}
{"smiles": "C[C@H](Cc1ccc(OCCCCCOc2ccc(C[C@@H](C)NC[C@H](O)c3cccc(Cl)c3)cc2)cc1)NC[C@H](O)c1cccc(Cl)c1", "note": "[TCMDC-131563]", "values": [{"measurement": "Ratio IC50 HepG2/IC50 P. falciparum", "setting": "[1]", "result": 3.25}, {"measurement": "IC50", "setting": "[1]", "result": 0.55, "unit": "µM"}, {"measurement": "% Control luminiscence", "setting": "[2]", "result": 100, "unit": "%"}, {"measurement": "pIC50", "setting": "HepG2 cells", "result": 5.75}, {"measurement": "pIC50", "setting": "[3]", "result": 6.72}]}
{"smiles": "CCc1c(CCNCCCCCCNCCc2ccc([N+](=O)[O-])cc2)ccc(OC)c1OC", "note": "[TCMDC-132066]", "values": [{"measurement": "Ratio IC50 HepG2/IC50 P. falciparum", "setting": "[1]", "result": 12}, {"measurement": "IC50", "setting": "[1]", "result": 0.54, "unit": "µM"}, {"measurement": "pIC50", "setting": "[1]", "result": 6.27}, {"measurement": "% Control luminiscence", "setting": "[2]", "result": 100, "unit": "%"}, {"measurement": "pIC50", "setting": "HepG2 cells", "result": 5.18}, {"measurement": "pIC50", "setting": "[3]", "result": 6.14}]}
{"smiles": "COc1ccc(CNC2Cc3ccccc3C2)cc1-c1ccc(S(=O)(=O)NCCN2CCCC2)cc1", "note": "[TCMDC-132248]", "values": [{"measurement": "Ratio IC50 HepG2/IC50 P. falciparum", "setting": "[1]", "result": 6}, {"measurement": "IC50", "setting": "[1]", "result": 1.38, "unit": "µM"}, {"measurement": "pIC50", "setting": "[1]", "result": 5.86}, {"measurement": "% Control luminiscence", "setting": "[2]", "result": 100, "unit": "%"}, {"measurement": "pIC50", "setting": "HepG2 cells", "result": 5.08}, {"measurement": "pIC50", "setting": "[3]", "result": 6.24}]}
{"smiles": "Cc1cc(-c2cccc(CNC3CCCC3)c2)ccc1S(=O)(=O)NCCN1CCCC1", "note": "[TCMDC-132279]", "values": [{"measurement": "Ratio IC50 HepG2/IC50 P. falciparum", "setting": "[1]", "result": 6}, {"measurement": "IC50", "setting": "[1]", "result": 1.24, "unit": "µM"}, {"measurement": "pIC50", "setting": "[1]", "result": 5.91}, {"measurement": "% Control luminiscence", "setting": "[2]", "result": 100, "unit": "%"}, {"measurement": "pIC50", "setting": "HepG2 cells", "result": 5.12}, {"measurement": "pIC50", "setting": "[3]", "result": 5.91}]}
{"smiles": "COc1ccc(CNCc2ccc(F)cc2)cc1-c1ccc(S(=O)(=O)NCCN2CCCC2)cc1", "note": "[TCMDC-132294]", "values": [{"measurement": "Ratio IC50 HepG2/IC50 P. falciparum", "setting": "[1]", "result": 5.36}, {"measurement": "IC50", "setting": "[1]", "result": 1.21, "unit": "µM"}, {"measurement": "pIC50", "setting": "[1]", "result": 5.92}, {"measurement": "% Control luminiscence", "setting": "[2]", "result": 98, "unit": "%"}, {"measurement": "pIC50", "setting": "HepG2 cells", "result": 5.19}, {"measurement": "pIC50", "setting": "[3]", "result": 5.98}]}
{"smiles": "COc1ccc(CNCCc2cccs2)cc1-c1cccc(S(=O)(=O)NCCN2CCCC2)c1", "note": "[TCMDC-132479]", "values": [{"measurement": "Ratio IC50 HepG2/IC50 P. falciparum", "setting": "[1]", "result": 7}, {"measurement": "IC50", "setting": "[1]", "result": 1.68, "unit": "µM"}, {"measurement": "pIC50", "setting": "[1]", "result": 5.78}, {"measurement": "% Control luminiscence", "setting": "[2]", "result": 94, "unit": "%"}, {"measurement": "pIC50", "setting": "HepG2 cells", "result": 4.94}, {"measurement": "pIC50", "setting": "[3]", "result": 6.06}]}
{"smiles": "O=C(Nc1ccc(N2CCNCC2)cc1)c1ccn2ncc(-c3cccc(Cl)c3)c2n1", "note": "[TCMDC-132663]", "values": [{"measurement": "Ratio IC50 HepG2/IC50 P. falciparum", "setting": "[1]", "result": 6.35}, {"measurement": "IC50", "setting": "[1]", "result": 3.5, "unit": "µM"}, {"measurement": "% Control luminiscence", "setting": "[2]", "result": 95, "unit": "%"}, {"measurement": "pIC50", "setting": "HepG2 cells", "result": 4.65}, {"measurement": "pIC50", "setting": "[3]", "result": 6.04}]}
{"smiles": "COc1ccc(-c2cc(-c3ccc(S(C)(=O)=O)cc3)cnc2N)cn1", "note": "[TCMDC-133351]", "values": [{"measurement": "IC50", "setting": "[1]; Plasmodium falciparum", "result": 1.18, "unit": "µM"}, {"measurement": "pIC50", "setting": "[1]; Plasmodium falciparum", "result": 5.93}, {"measurement": "% Control luminiscence", "setting": "[2]", "result": 100, "unit": "%"}, {"measurement": "IC50", "setting": "[3]; P. falciparum asexual stages, read-out: IC50 (µM) Pf asexual stages", "result": 0.19, "unit": "µM"}, {"measurement": "pIC50", "setting": "[3]", "result": 6.73}]}
{"smiles": "Nc1ncc(-c2ccc3nccc(-c4ccncc4)c3c2)cc1S(=O)(=O)N1CCOCC1", "note": "[TCMDC-134180]", "values": [{"measurement": "Ratio IC50 HepG2/IC50 P. falciparum", "setting": "[1]", "result": ">3"}, {"measurement": "IC50", "setting": "[1]", "result": 6.9, "unit": "µM"}, {"measurement": "% Control luminiscence", "setting": "[2]", "result": 100, "unit": "%"}, {"measurement": "pIC50", "setting": "HepG2 cells", "result": "< 4.60"}, {"measurement": "pIC50", "setting": "[3]", "result": 6.06}]}
